Where a name gives a salt, the structure may show the parent alone.
Legend:
male Wistar rats = experiment: Sleep and behavioral monitoring in rats (EEG, EMG, motion); assay type: in vivo; conditions: for Rebound Insomnia Adj. Mean: NREM+REM sleep in 7th-9th hours post-treatment; for Rebound Insomnia Adj. Mean / Cumulative Total sleep Adj. Mean / REM inhibition Adj. Mean / Cumulative NREM sleep Adj. Mean / Locomotor Activity Intensity Adj. Mean: adjusted difference from vehicle; for Cumulative Total sleep Adj. Mean: NREM+REM; for Cumulative Total sleep Adj. Mean / Average Sleep Bout Adj. Mean / Longest Sleep Bout Adj. Mean / Cumulative NREM sleep Adj. Mean / Locomotor Activity Intensity Adj. Mean: first 6 hr. post-treatment; for REM inhibition Adj. Mean: cumulative REM sleep, first 12 hr. post-treatment
Procedure: The compound of the present invention is tested in rats for its ability to increase the amount of sleep or decrease sleep interruption or both without undesired effects such as inhibition of REM sleep, waking motor impairment, and/or rebound insomnia. Test animals are continuously monitored by electro-encephalograms (EEG), electromyograms (EMG), and motion to measure cumulative nonREM sleep, cumulative total sleep, average sleep bout duration, longest sleep bout duration, rebound insomnia, REM sleep inhibition and locomotor activity intensity during wakefulness. Methods for such studies are known in the art (see for example methods described in Edgar D M, Seidel W F. Modafinil induces wakefulness without intensifying motor activity or subsequent rebound hypersomnolence in the rat. J Pharmacology & Experimental Therapeutics 1997; 283: 757-769; van Gelder R N, Edgar D M, Dement W C. Real-time automated sleep scoring: validation of a microcomputer-based system for mice. Sleep 1991, 14: 48-55; and Gross B A, Walsh C M, Turakhia A A, Booth V, Mashour G A, Poe G R. Open-source logic-based automated sleep scoring software using electrophysiological recordings in rats. J Neurosci Methods. 2009; 184(1):10-8.) Studies are conducted as follows:
Adult, male Wistar rats (approximately 270-300 g at time of surgery) are surgically fitted for chronic recording of EEG, EMG, and motion as follows: Rats are surgically prepared with a cranial implant consisting of four stainless steel screws for EEG recording (two frontal [3.9 mm anterior from bregma, and ±2.0 mm mediolaterally] and two occipital [6.4 mm posterior from bregma, ±5.5 mm mediolaterally]), and with two Teflon-coated stainless steel wires for EMG recording (positioned under the nuchal trapezoid muscles). All leads are soldered to a miniature connector (Microtech, Boothwyn, Pa.) prior to surgery. The implant assembly is affixed to the skull by the combination of the stainless steel EEG recording screws, cyanoacrylate applied between the implant connector and skull, and dental acrylic. Locomotor activity is monitored via a miniature transmitter (Minimitter PDT4000G, Philips Respironics, Bend, Oreg.) surgically placed into the abdomen. At least 3 weeks are allowed for recovery.
Each rat is housed individually within a microisolator cage modified with an inserted polycarbonate filter-top riser to allow more vertical headroom. A flexible cable that minimally restricts movement is connected at one end to a commutator afixed to the cage top and at the other end to the animal's cranial implant. Each cage is located within separate, ventilated compartments of a stainless steel sleep-wake recording chamber. Food and water are available ad libitum and the ambient temperature is maintained at about 23±1° C. A 24-hr light-dark cycle (LD 12:12) using fluorescent light is maintained throughout the study. Relative humidity averages approximately 50%. Animals are undisturbed for at least 30 his before and after each treatment.
The vehicle (placebo, methylcellulose 15 centipoise 0.25% in water) or one of the test compound dose levels is administered orally at 1 mL/kg pseudo-randomly such that no rat receives the same treatment twice, and no rat receives more than two of the 8 treatments in any one study. Each rat is removed from its cage for about a minute to be weighed and treated. At least 6 days “washout” period precede and follow each treatment. […]

Dopamine D2 = Dopamine D2 (Homo sapiens, UniProt P14416); experiment: Dopamine D2 binding
Description: (§1) Further, the compounds of the invention may be tested in binding assays and functional activity assays by well known methods for other physiologically important receptors such as, but not limited to, the hERG channel, other serotonin receptors (specifically 5-HT1B and 5-HT1D receptors, lack of agonist activity at 5-HT2B receptors, 5-HT2C, 5-HT5, 5-HT6, and 5-HT7 receptors), dopaminergic receptors (specifically D1, D2, and D3), GABAA receptors, adrenergic receptors and monoamine transporters.

5-HT5 = 5-HT5 (Homo sapiens, UniProt P47898); experiment: 5-HT5 binding
Description: as §1

[1] = threshold efficacy dose, 6 hr. after treatment, 4 parameter logistic regression, freebase
[2] = within 10 times the most conservative efficacy dose (0.78 mg/kg)

Chain of 5-HT5 (P47898 whole entry, species assumed): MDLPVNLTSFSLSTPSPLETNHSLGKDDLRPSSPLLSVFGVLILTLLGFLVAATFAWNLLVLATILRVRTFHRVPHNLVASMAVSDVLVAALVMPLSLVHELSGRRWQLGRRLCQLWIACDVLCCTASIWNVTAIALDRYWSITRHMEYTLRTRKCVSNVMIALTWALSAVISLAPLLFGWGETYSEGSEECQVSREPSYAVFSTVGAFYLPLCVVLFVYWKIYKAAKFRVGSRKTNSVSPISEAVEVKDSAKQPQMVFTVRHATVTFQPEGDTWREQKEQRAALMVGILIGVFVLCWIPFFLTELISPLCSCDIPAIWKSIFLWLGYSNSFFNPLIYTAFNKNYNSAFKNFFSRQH
Chain of Dopamine D2 (P14416 whole entry): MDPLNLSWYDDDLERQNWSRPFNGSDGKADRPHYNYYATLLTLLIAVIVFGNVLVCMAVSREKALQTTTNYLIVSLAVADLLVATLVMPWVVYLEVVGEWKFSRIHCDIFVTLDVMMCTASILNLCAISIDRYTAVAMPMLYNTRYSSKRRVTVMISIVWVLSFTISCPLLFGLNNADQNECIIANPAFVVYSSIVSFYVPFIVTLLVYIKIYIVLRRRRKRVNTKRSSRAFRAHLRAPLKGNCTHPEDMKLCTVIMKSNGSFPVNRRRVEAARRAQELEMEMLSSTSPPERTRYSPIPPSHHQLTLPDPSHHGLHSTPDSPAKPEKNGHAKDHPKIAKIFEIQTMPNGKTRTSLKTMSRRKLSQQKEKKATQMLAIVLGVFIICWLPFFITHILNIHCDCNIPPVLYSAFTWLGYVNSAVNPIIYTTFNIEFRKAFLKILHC

With `Cc1ccc2c(c1)Oc1sc(C3CC3)cc1C(N1CCN(CC(C)(C)C(=O)O)CC1)=N2` [Example 2, 3-[4-(2-Cyclopropyl-8-methyl-thieno[2,3-b][1,5]benzoxazepin-4-yl)piperazin-1-yl]-2,2-dimethyl-propanoic acid dihydrochloride] the “Rebound Insomnia Adj. Mean” value (male Wistar rats; 0.025 mg/kg PO) was 0.40 min, the “Cumulative Total sleep Adj. Mean” value (male Wistar rats; 0.025 mg/kg PO) was 3.6 min and the “REM inhibition Adj. Mean” value (male Wistar rats; 0.025 mg/kg PO) was 5.0 min. The “Average Sleep Bout Adj. Mean” value (male Wistar rats; 0.025 mg/kg PO) was 1.08 n-fold increase over vehicle controls, the “Longest Sleep Bout Adj. Mean” value (male Wistar rats; 0.025 mg/kg PO) was 1.26 n-fold increase over vehicle controls and the “Cumulative NREM sleep Adj. Mean” value (male Wistar rats; 0.025 mg/kg PO) was -2.3 min. For the same compound, the “Locomotor Activity Intensity Adj. Mean” value (male Wistar rats; 0.025 mg/kg PO) was −1.40 LMA counts per minute of EEG-defined wakefulness, the “Rebound Insomnia Adj. Mean” value (male Wistar rats; 0.1 mg/kg PO) was -0.027 min and the “Cumulative Total sleep Adj. Mean” value (male Wistar rats; 0.1 mg/kg PO) was 16.9 min. The “REM inhibition Adj. Mean” value (male Wistar rats; 0.1 mg/kg PO) was -0.71 min, the “Average Sleep Bout Adj. Mean” value (male Wistar rats; 0.1 mg/kg PO) was 1.19 n-fold increase over vehicle controls and the “Longest Sleep Bout Adj. Mean” value (male Wistar rats; 0.1 mg/kg PO) was 1.07 n-fold increase over vehicle controls. The “Cumulative NREM sleep Adj. Mean” value (male Wistar rats; 0.1 mg/kg PO) was 15.4 min, the “Locomotor Activity Intensity Adj. Mean” value (male Wistar rats; 0.1 mg/kg PO) was 0.41 LMA counts per minute of EEG-defined wakefulness and the “Rebound Insomnia Adj. Mean” value (male Wistar rats; 0.25 mg/kg PO) was 2.2 min. For the same compound, the “Cumulative Total sleep Adj. Mean” value (male Wistar rats; 0.25 mg/kg PO) was 23.0 min, the “REM inhibition Adj. Mean” value (male Wistar rats; 0.25 mg/kg PO) was 2.8 min and the “Average Sleep Bout Adj. Mean” value (male Wistar rats; 0.25 mg/kg PO) was 1.34 n-fold increase over vehicle controls. For the same compound, the “Longest Sleep Bout Adj. Mean” value (male Wistar rats; 0.25 mg/kg PO) was 1.55 n-fold increase over vehicle controls, the “Cumulative NREM sleep Adj. Mean” value (male Wistar rats; 0.25 mg/kg PO) was 19.1 min and the “Locomotor Activity Intensity Adj. Mean” value (male Wistar rats; 0.25 mg/kg PO) was −0.31 LMA counts per minute of EEG-defined wakefulness. The “Rebound Insomnia Adj. Mean” value (male Wistar rats; 0.5 mg/kg PO) was -5.0 min, the “Cumulative Total sleep Adj. Mean” value (male Wistar rats; 0.5 mg/kg PO) was 32.6 min and the “REM inhibition Adj. Mean” value (male Wistar rats; 0.5 mg/kg PO) was 2.3 min. The “Average Sleep Bout Adj. Mean” value (male Wistar rats; 0.5 mg/kg PO) was 1.59 n-fold increase over vehicle controls, the “Longest Sleep Bout Adj. Mean” value (male Wistar rats; 0.5 mg/kg PO) was 1.81 n-fold increase over vehicle controls and the “Cumulative NREM sleep Adj. Mean” value (male Wistar rats; 0.5 mg/kg PO) was 30.6 min. The “Locomotor Activity Intensity Adj. Mean” value (male Wistar rats; 0.5 mg/kg PO) was −1.30 LMA counts per minute of EEG-defined wakefulness, the “Rebound Insomnia Adj. Mean” value (male Wistar rats; 1 mg/kg PO) was -0.6 min and the “Cumulative Total sleep Adj. Mean” value (male Wistar rats; 1 mg/kg PO) was 33.2 min. The “REM inhibition Adj. Mean” value (male Wistar rats; 1 mg/kg PO) was 1.2 min, the “Average Sleep Bout Adj. Mean” value (male Wistar rats; 1 mg/kg PO) was 1.60 n-fold increase over vehicle controls and the “Longest Sleep Bout Adj. Mean” value (male Wistar rats; 1 mg/kg PO) was 2.16 n-fold increase over vehicle controls. The “Cumulative NREM sleep Adj. Mean” value (male Wistar rats; 1 mg/kg PO) was 31.0 min, the “Locomotor Activity Intensity Adj. Mean” value (male Wistar rats; 1 mg/kg PO) was −2.33 LMA counts per minute of EEG-defined wakefulness and the “Rebound Insomnia Adj. Mean” value (male Wistar rats; 3 mg/kg PO) was 1.6 min. For the same compound, the “Cumulative Total sleep Adj. Mean” value (male Wistar rats; 3 mg/kg PO) was 31.6 min, the “REM inhibition Adj. Mean” value (male Wistar rats; 3 mg/kg PO) was 0.042 min and the “Average Sleep Bout Adj. Mean” value (male Wistar rats; 3 mg/kg PO) was 1.92 n-fold increase over vehicle controls. The “Longest Sleep Bout Adj. Mean” value (male Wistar rats; 3 mg/kg PO) was 2.16 n-fold increase over vehicle controls, the “Cumulative NREM sleep Adj. Mean” value (male Wistar rats; 3 mg/kg PO) was 30.1 min and the “Locomotor Activity Intensity Adj. Mean” value (male Wistar rats; 3 mg/kg PO) was 0.01 LMA counts per minute of EEG-defined wakefulness. The “Rebound Insomnia Adj. Mean” value (male Wistar rats; 10 mg/kg PO) was 3.3 min, the “Cumulative Total sleep Adj. Mean” value (male Wistar rats; 10 mg/kg PO) was 26.3 min and the “REM inhibition Adj. Mean” value (male Wistar rats; 10 mg/kg PO) was -7.3 min. For the same compound, the “Average Sleep Bout Adj. Mean” value (male Wistar rats; 10 mg/kg PO) was 1.56 n-fold increase over vehicle controls, the “Longest Sleep Bout Adj. Mean” value (male Wistar rats; 10 mg/kg PO) was 2.12 n-fold increase over vehicle controls and the “Cumulative NREM sleep Adj. Mean” value (male Wistar rats; 10 mg/kg PO) was 26.9 min. For the same compound, the “Locomotor Activity Intensity Adj. Mean” value (male Wistar rats; 10 mg/kg PO) was −0.89 LMA counts per minute of EEG-defined wakefulness, the “REM sleep inhibition (in words)” value (male Wistar rats; at 3 mg/kg) was “without significant” and the “cumulative NREM sleep time (in words)” value (male Wistar rats; at 3 mg/kg) was “significantly increase”. The “cumulative total sleep time (in words)” value (male Wistar rats; at 3 mg/kg) was “significantly increase”, the “inhibition of locomotor intensity (LMI) (in words)” value (male Wistar rats; at 3 mg/kg) was “without significant” and the “rebound insomnia (in words)” value (male Wistar rats; at 3 mg/kg) was “without significant”. For the same compound, the “REM sleep inhibition versus threshold value” (male Wistar rats; at 10 mg/kg, threshold −10 min. cumulative REM sleep (lower confidence limit)) was “exceeds the threshold value”, the “change in awake time following treatment (dose response curve, FIG. 2)” value (male Wistar rats; dose response) was “does not result in rebound insomnia” and the “change in cumulative REM sleep time (dose response curve, FIG. 1)” value (male Wistar rats; dose response) was “does not inhibit REM sleep”. The “change in distances moved during periods of wakefulness (dose response curve, FIG. 3)” value (male Wistar rats; dose response) was “does not inhibit or stimulate normal activity”, the “Estimated efficacy dose (mg/kg), NREM accumulation = 30 min.” value (male Wistar rats; [1]) was 0.78 mg/kg and the “Estimated efficacy dose (mg/kg), average sleep bout (1.5-fold increase)” value (male Wistar rats; [1]) was 0.33 mg/kg. For the same compound, the “Estimated efficacy dose (mg/kg), longest sleep bout (1.75-fold increase)” value (male Wistar rats; [1]) was 0.33 mg/kg, the “Estimated efficacy dose (mg/kg), total sleep accumulation = 25 min.” value (male Wistar rats; [1]) was 0.19 mg/kg and the “undesired occurrences of REM inhibition” value (male Wistar rats; [2]) was “no undesired occurrences”. The “undesired occurrences of rebound insomnia” value (male Wistar rats; [2]) was “no undesired occurrences”, the “undesired occurrences of reduction in LMI” value (male Wistar rats; [2]) was “no undesired occurrences” and the Ki (Dopamine D2) was 2.32 µM. It also gave a Ki (5-HT5) of 3.48 µM.

From US9562057B2, “(Thieno[2,3-b][1,5]benzoxazepin-4-yl)piperazin-1-yl compounds as dual activity H1 inverse agonists/5-HT2A antagonists” (Eli Lilly and Company, priority 2013, dated 2017)
